Data published in patent US4868154A, “Stimulation of tear secretion with melanocyte stimulating hormones” (Eye Research Institute of Retina Foundation, priority 1986, dated 1989).
Where no end group is shown, it is not given here.

Legend:
lacrimal gland = details: topical administration; Gilbard and Dartt, patent pending; cited from earlier work
lacrimal gland cells = details: Dartt et al, Am. J. Physio. 247: G502, 1984; cited from earlier work
rabbits with dry eyes = assay: Tear film osmolality after topical drops in dry eye rabbits; assay type: in vivo; details: dry eye rabbit, topical 10 μl drops, 10^-5 M, 10^-4 M and 10^-3 M in buffer, FIGS. 2 to 4; for tear film osmolality compared with buffer alone: tear samples at 6 and 16 minutes
Experimental: In vivo examples in accordance with the invention were conducted on rabbits with dry eyes. The dry eye disorder is created by surgically closing the duct that carries fluid from the main lacrimal gland to the tear film and surgically removing the nictitans and harderian glands. This leaves intact only the accessory glands that lie on the surface of the eye. These rabbits develop increased tear film osmolality soon after the operation, a finding that is understood to be due to decreased tear production, and that is characteristic of dry eye. It is recognized that results of opthalmologic tests using rabbits has close correlation with humans and therefore the results carry over to humans
The effect on tear film osmolality of topically applied isotonic buffer solution with and without melanocyte stimulating hormones which activate the melanotropin receptors was studied in the dry eye rabbit. All test drops were ten microliters (μl) in volume. Tear samples were taken with a micropipette system, in the manner described in the article entitled "Osmolarity of Tear Microvolumes in Keratoconjunctivitis Sicca", by Gilbard et al, Arch Ophthalmol 96:677, 1978. Osmolarity was measured by freezing-point depression.
The following protocol was used to test the effects of the topically applied melanotropins. At zero time a tear sample was taken for measurement of osmolality. At one minute the test drop was instilled. At six and at sixteen minutes, tear samples were taken for osmolality measurements. Five minutes after the sixteen minute sample, the above sequence was repeated several times to test additional drops.
The following drops were instilled in the test eye and after each such instillation, test samples were taken as stated: (1) buffer solution, (2) buffer solution containing a melanocyte stimulating hormone at a low dose, (3) buffer solution, (4) buffer solution containing a melanocyte stimulating hormone at a moderate dose, (5) buffer solution, (6) buffer solution containing a melanocyte stimulating hormone at a higher dose. The melanocyte stimulating hormone may be obtained from Peninsula Laboratories,Inc., Belmont California. The results are shown in FIGS. 1 through 4 A, B, and C, where FIGS. 1 through 4 each represent results obtained from the same rabbit.

tissue pieces in vitro = details: Jahn et al Eur. J. Biochem 126: 623, 1982; cited from earlier work

Substance	lacrimal gland fluid secretion (lacrimal gland)	cyclic AMP levels in lacrimal gland cells (lacrimal gland cells)	dose dependence of the decrease in tear film osmolality (rabbits with dry eyes)	tear film osmolality compared with buffer alone (rabbits with dry eyes)	protein secretion (tissue pieces in vitro)
vasoactive intestinal peptide (HSDAVFTDNYTRLRKQMAVKKYLNSILN; ends and bridges not checked; UniProt P01282 125-152, looked up) [peptide cited from prior work as stimulating lacrimal gland fluid secretion]	stimulates lacrimal gland fluid secretion	increase cyclic AMP levels	–	–	–
gamma-melanocyte stimulating hormone [gamma-MSH]	–	–	dose-dependent decrease in tear film osmolality	lowers the tear film osmolality more effectively than buffer alone	–
adrenocorticotropic hormone (SYSMEHFRWGKPVGKKRRPVKVYPNGAEDESAEAFPLEF; Corticotropin; UniProt P01189 138-176, looked up) [hormone cited from literature as stimulating protein secretion in vitro]	–	–	–	–	stimulate protein secretion
beta-melanocyte stimulating hormone [beta-MSH]	–	–	dose-dependent decrease in tear film osmolality	lowers the tear film osmolality more effectively than buffer alone	–
